Reference: paper PMC2630805, “Anticancer Alkaloid Lamellarins Inhibit Protein Kinases” (Marine Drugs, 2008)
Where two headings read alike, the source gives them in different places.

Legend:
PIM 1 = PIM 1 (Homo sapiens, UniProt P11309); assay: PIM1 kinase assay (histone H1); type: biochemical; details: 15 μM ATP; cell '− (x)' = no inhibitory activity detected, x = highest concentration tested; read-out: IC50 PIM 1
GSK-3α/ß = assay: GSK-3α/β kinase assay (GS-1 substrate); type: biochemical, porcine; details: 15 μM ATP; cell '− (x)' = no inhibitory activity detected, x = highest concentration tested
Source text: GSK-3 α/β was purified from porcine brain by affinity chromatography on immobilized axin [39].

[1] = test system: human neuroblastoma SH-SY5Y cells; assay: SH-SY5Y cell survival, MTS reduction assay; type: cell-based; details: MTS assay, dose-response after 24 h and 48 h exposure, cell '− (x)' = no activity, x = highest concentration tested, read-out: IC50 SH-SY5Y cell survival
Protocol: We next tested the effects of each lamellarin, at an initial 10 μM concentration, on the survival of the neuroblastoma SH-SY5Y cell line after 48 h exposure (Table 2). Cell survival was estimated by the MTS reduction assay.
SH-SY5Y human neuroblastoma cells were grown in DMEM supplemented with 2mM L-glutamine (Invitrogen, Cergy Pontoise, France), plus antibiotics (penicillin-streptomycin) and a 10% volume of fetal calf serum (FCS) (Invitrogen). Cell viability was determined by means of the MTS (3- (4,5-dimethylthiazol-2-yl)-5- (3-carboxymethoxyphenyl)-2- (4-sulfophenyl)-2H -tetrazolium) reduction method as previously described. Cell death was (also) assayed by LDH release. Lactate dehydrogenase is a stable cytosolic enzyme that is released upon cell lysis. SH-SY5Y cells were also subjected to caspase activity assays. These are based on cleavage of a synthetic caspase substrate DEVD (MP Biomedicals, 199423), a subtrate of active caspase 3/6/7. The assay was carried out according to manufacturer’s instructions.

CDK1/cyclin B = CDK1/cyclin B kinase assay (histone H1, P81 phosphocellulose); type: biochemical, starfish (Marthasterias glacialis); details: 15 μM ATP; cell '− (x)' = no inhibitory activity detected, x = highest concentration tested
Protocol: ATP (3,000 Ci/mmol; 1 mCi/ml) in a final volume of 30 μl. […] The wet filters were counted in the presence of 1 ml ACS (Amersham) scintillation fluid.

CK1 = CK1 kinase assay (CKS peptide); type: biochemical, porcine
Protocol: CK1 was purified from porcine brain by affinity chromatography on immobilized axin fragment. The mixture of native CK1 isoforms (essentially CK1δ and CK1ɛ) was assayed in three-fold diluted buffer C, using 25 μM CKS peptide, a CK1 selective substrate (RRKHAAIGpSAYSITA, synthesized by Millegen (Labège, France). Assays were performed for 30 min. at 30°C, as described for GSK-3.

CDK5/p25 = CDK5/p25 (Homo sapiens, UniProt Q00535); assay: CDK5/p25 kinase assay (histone H1)
Chain of CDK5/p25 (Q00535 whole entry): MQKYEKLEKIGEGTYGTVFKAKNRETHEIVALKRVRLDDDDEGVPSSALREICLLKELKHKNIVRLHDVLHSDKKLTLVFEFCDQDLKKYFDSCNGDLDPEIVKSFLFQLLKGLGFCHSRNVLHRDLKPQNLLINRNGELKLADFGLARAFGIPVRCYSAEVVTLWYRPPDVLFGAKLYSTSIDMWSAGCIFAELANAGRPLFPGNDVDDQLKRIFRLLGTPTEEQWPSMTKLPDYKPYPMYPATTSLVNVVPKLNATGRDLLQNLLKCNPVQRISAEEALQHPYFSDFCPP
Chain of CDK5/p25 (Q15078 99-307 partner limits assumed): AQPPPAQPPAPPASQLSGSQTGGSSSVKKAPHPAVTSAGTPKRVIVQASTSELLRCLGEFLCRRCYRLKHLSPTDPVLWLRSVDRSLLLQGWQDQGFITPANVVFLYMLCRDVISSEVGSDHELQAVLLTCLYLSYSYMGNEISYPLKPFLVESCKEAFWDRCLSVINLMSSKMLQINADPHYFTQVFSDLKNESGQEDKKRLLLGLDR
Protocol: (§1) Blank values were subtracted and activities calculated as pmoles of phosphate incorporated during a 30 min. incubation. The activities were expressed in % of the maximal activity, i.e. in the absence of inhibitors. Controls were performed with appropriate dilutions of dimethylsulfoxide. Unless otherwise stated, the P81 phosphocellulose assay was used.
Its activity was assayed with histone H1 in buffer C as described for CDK1/cyclin B.

DYRK1A = DYRK1A (Rattus norvegicus, UniProt Q63470); assay: DYRK1A kinase assay (myelin basic protein)
Protocol: as §1
DYRK1A was expressed as a GST fusion protein in E. coli (vector kindly provided by Dr. W. Becker, Institute for Pharmacology and Toxicology, Aachen, Germany) and affinity purified on glutathione-agarose. […] ATP in a final volume of 30 μl. After 30 min incubation at 30°C, 25 μl aliquots of supernatant were treated as described above.

HeLa cells = test system: HeLa cells; parameters: method as in PMID 11975488; details: provided for comparison, ref [18]; cited from earlier work
[2] = 15 μM ATP, cell '− (x)' = no inhibitory activity detected, x = highest concentration tested

Chain of PIM 1 (P11309 whole entry, species assumed): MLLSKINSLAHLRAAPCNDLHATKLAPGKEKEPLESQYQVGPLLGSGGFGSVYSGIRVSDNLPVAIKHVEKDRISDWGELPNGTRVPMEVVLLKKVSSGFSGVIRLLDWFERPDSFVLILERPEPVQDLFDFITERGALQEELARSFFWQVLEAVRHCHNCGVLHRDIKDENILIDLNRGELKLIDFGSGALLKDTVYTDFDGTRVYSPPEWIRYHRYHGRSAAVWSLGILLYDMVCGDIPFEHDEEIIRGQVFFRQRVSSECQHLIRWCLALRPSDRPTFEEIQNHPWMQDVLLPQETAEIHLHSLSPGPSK

Compound: O=c1oc2cc(O)c(O)cc2c2c(-c3ccc(O)c(O)c3)c3n(c12)CCc1cc(O)c(O)cc1-3 [Compound 5, di-H-lamellarin H]
- IC50 (PIM 1): > 10 µM
- IC50 (GSK-3α/ß): 0.67 µM
- IC50 [1]: 2.55 µM
- IC50 (CDK1/cyclin B): > 10 µM
- IC50 (CK1; [2]): 5.2 µM
- IC50 (CDK5/p25): > 10 µM
- IC50 (DYRK1A): > 10 µM

Compound: COc1cccc(-c2c3c4cc(OC)c(O)cc4oc(=O)c3n3ccc4cc(O)c(OC)cc4c23)c1 [Compound 13, lamellarin 7]
- IC50 (PIM 1): > 10 µM
- IC50 (HeLa cells): 0.07 µM
- IC50 (GSK-3α/ß): 2.1 µM
- IC50 [1]: 0.14 µM
- IC50 (CDK1/cyclin B): 4.3 µM
- IC50 (CK1; [2]): > 10 µM
- IC50 (CDK5/p25): 2.1 µM
- IC50 (DYRK1A): > 10 µM

Compound: O=c1oc2ccccc2c2c(-c3ccc(O)c(O)c3)c3c4cc(O)c(O)cc4ccn3c12 [Compound 15, lamellarin 9]
- IC50 (PIM 1): > 10 µM
- IC50 (HeLa cells): 1.1 µM
- IC50 (GSK-3α/ß): > 10 µM
- IC50 [1]: > 10 µM
- IC50 (CDK1/cyclin B): > 10 µM
- IC50 (CK1; [2]): > 10 µM
- IC50 (CDK5/p25): > 10 µM
- IC50 (DYRK1A): > 10 µM

Compound: COc1cc2c(cc1O)oc(=O)c1c2c(-c2ccc(O)cc2)c2c3cc(OC)c(O)cc3ccn21 [Compound 12, lamellarin 6]
- IC50 (PIM 1): 0.33 µM
- IC50 (HeLa cells): 0.04 µM
- IC50 (GSK-3α/ß): 0.13 µM
- IC50 [1]: 0.11 µM
- IC50 (CDK1/cyclin B): 0.1 µM
- IC50 (CK1; [2]): 0.8 µM
- IC50 (CDK5/p25): 0.03 µM
- IC50 (DYRK1A): 0.09 µM

Compound: COc1cc(-c2c3n(c4c(=O)oc5cc(O)c(OC)cc5c24)CCc2c-3cc(OC)c(OC)c2O)ccc1O [Compound 22, lamellarin K]
- IC50 (PIM 1): 0.6 µM
- IC50 (GSK-3α/ß): > 10 µM
- IC50 [1]: > 30 µM
- IC50 (CDK1/cyclin B): > 10 µM
- IC50 (CK1; [2]): 6 µM
- IC50 (CDK5/p25): > 10 µM
- IC50 (DYRK1A): > 10 µM

Compound: COc1cc2c(cc1O)oc(=O)c1c2c(-c2ccc(OC)c(OC)c2)c2c3cc(OC)c(OC)cc3ccn21 [Compound 11, lamellarin 5]
- IC50 (PIM 1): 2 µM
- IC50 (HeLa cells): 2.5 µM
- IC50 (GSK-3α/ß): > 10 µM
- IC50 [1]: 8 µM
- IC50 (CDK1/cyclin B): > 10 µM
- IC50 (CK1; [2]): > 10 µM
- IC50 (CDK5/p25): > 10 µM
- IC50 (DYRK1A): > 10 µM

Compound: COc1cc(-c2c3n(c4c(=O)oc5cc(O)c(OC)cc5c24)CCc2cc(O)c(OC)cc2-3)ccc1O [Compound 3, di-H-lamellarin D]
- IC50 (PIM 1): 0.2 µM
- IC50 (GSK-3α/ß): 0.9 µM
- IC50 [1]: 0.41 µM
- IC50 (CDK1/cyclin B): 1.85 µM
- IC50 (CK1; [2]): 5.9 µM
- IC50 (CDK5/p25): 0.11 µM
- IC50 (DYRK1A): 0.5 µM

Compound: O=c1oc2cc(O)c(O)cc2c2c(-c3ccc(O)c(O)c3)c3c4cc(O)c(O)cc4ccn3c12 [Compound 4, lamellarin H]
- IC50 (PIM 1): > 10 µM
- IC50 (HeLa cells): > 100 µM
- IC50 (GSK-3α/ß): 9.5 µM
- IC50 [1]: 0.45 µM
- IC50 (CDK1/cyclin B): > 10 µM
- IC50 (CK1; [2]): 5.3 µM
- IC50 (CDK5/p25): > 10 µM
- IC50 (DYRK1A): > 10 µM

Compound: COc1ccc(-c2c3c4ccccc4oc(=O)c3n3ccc4cc(OC)c(OC)cc4c23)cc1OC [Compound 16, lamellarin 11]
- IC50 (PIM 1): > 10 µM
- IC50 (HeLa cells): 5.7 µM
- IC50 (GSK-3α/ß): > 10 µM
- IC50 [1]: > 10 µM
- IC50 (CDK1/cyclin B): > 10 µM
- IC50 (CK1; [2]): > 10 µM
- IC50 (CDK5/p25): > 10 µM
- IC50 (DYRK1A): > 10 µM

Compound: COc1cc(-c2c3c4ccc(O)cc4oc(=O)c3n3ccc4cc(O)c(OC)cc4c23)ccc1O [Compound 9, lamellarin 3]
- IC50 (PIM 1): 0.15 µM
- IC50 (HeLa cells): 0.04 µM
- IC50 (GSK-3α/ß): 0.58 µM
- IC50 [1]: 0.056 µM
- IC50 (CDK1/cyclin B): 0.53 µM
- IC50 (CK1; [2]): 0.41 µM
- IC50 (CDK5/p25): 0.6 µM
- IC50 (DYRK1A): 0.06 µM

Compound: COc1cc(-c2c3c4cc(OC)c(O)cc4oc(=O)c3n3ccc4cc(O)c(OC)cc4c23)ccc1O [Compound 1, lamellarin D]
- IC50 (PIM 1): 0.1 µM
- IC50 (HeLa cells): 0.011 µM
- IC50 (GSK-3α/ß): 0.3 µM
- IC50 [1]: 0.019 µM
- IC50 (CDK1/cyclin B): 0.5 µM
- IC50 (CK1): 13 µM
- IC50 (CDK5/p25): 0.55 µM
- IC50 (DYRK1A): 0.45 µM

Compound: COc1ccc2oc(=O)c3c(c(-c4ccc(O)c(OC)c4)c4c5cc(OC)c(O)cc5ccn43)c2c1 [Compound 10, lamellarin 4]
- IC50 (PIM 1): 0.05 µM
- IC50 (HeLa cells): 0.85 µM
- IC50 (GSK-3α/ß): 0.05 µM
- IC50 [1]: 0.79 µM
- IC50 (CDK1/cyclin B): 2 µM
- IC50 (CK1; [2]): 1.3 µM
- IC50 (CDK5/p25): 0.6 µM
- IC50 (DYRK1A): 0.08 µM

Compound: COc1ccc(-c2c3c4cc5c(cc4oc(=O)c3n3ccc4cc(OC)c(OC)cc4c23)OCO5)cc1OC [Compound 17, lamellarin 12]
- IC50 (PIM 1): > 10 µM
- IC50 (HeLa cells): > 100 µM
- IC50 (GSK-3α/ß): > 10 µM
- IC50 [1]: > 10 µM
- IC50 (CDK1/cyclin B): > 10 µM
- IC50 (CK1; [2]): > 10 µM
- IC50 (CDK5/p25): > 10 µM
- IC50 (DYRK1A): > 10 µM

Compound: COc1cc(-c2c3c4ccccc4oc(=O)c3n3ccc4cc(O)c(OC)cc4c23)ccc1O [Compound 14, lamellarin 8]
- IC50 (PIM 1): 0.7 µM
- IC50 (HeLa cells): 4 µM
- IC50 (GSK-3α/ß): 2.2 µM
- IC50 [1]: 2.65 µM
- IC50 (CDK1/cyclin B): 5 µM
- IC50 (CK1; [2]): > 10 µM
- IC50 (CDK5/p25): 0.9 µM
- IC50 (DYRK1A): 1 µM

Compound: COc1ccc(-c2c3n(c4c(=O)oc5cc(O)c(OC)cc5c24)CCc2cc(O)c(OC)cc2-3)cc1O [Compound 7, lamellarin L]
- IC50 (PIM 1): 0.25 µM
- IC50 (GSK-3α/ß): 0.041 µM
- IC50 [1]: 0.7 µM
- IC50 (CDK1/cyclin B): 0.38 µM
- IC50 (CK1; [2]): > 10 µM
- IC50 (CDK5/p25): 0.1 µM
- IC50 (DYRK1A): 0.14 µM

Compound: COc1cc(-c2c3c4cc(OC)c(O)cc4oc(=O)c3n3ccc4cc(OC)c(OC)cc4c23)ccc1O [Compound 2, lamellarin α]
- IC50 (PIM 1): 0.59 µM
- IC50 (GSK-3α/ß): 1.4 µM
- IC50 [1]: > 10 µM
- IC50 (CDK1/cyclin B): 8 µM
- IC50 (CK1; [2]): 7.9 µM
- IC50 (CDK5/p25): > 10 µM
- IC50 (DYRK1A): 5 µM
